# In ChEMBL document CHEMBL5729478, “Alpha-5 beta-1 inhibitors” (2022):
# Biological target: Integrin alpha-5/beta-1 (Homo sapiens, UniProt P05556+P08648)
# Test: Cell Adhesion Assay: Evaluation of cell attachment to extracellular matrix proteins was performed as previously described by Yokosaki et al, J. Biol. Chem., 271: (39): 24144-24150 (1996). Briefly, wells of non-tissue culture-treated polystyrene 96-well flat-bottom microtiter plates (Linbro/Titertek, Flow Laboratories, McLean, Va.) were coated by incubation with 100 μl of each substrate in PBS at 37° C. for 1 hour. 96-well flat-bottomed tissue culture plates were coated with human plasma fibronectin for 1 hour at 37° C. After incubation, wells were washed with PBS, then blocked with 1% bovine serum albumin (BSA) for one hour. Control wells were filled with 1% BSA. SW480 cells were detached using 10 mM EDTA and resuspended in serum-free DMEM. For blocking experiments, cells were incubated with 10 μg/ml of the antibody for 15 minutes at 4° C. before plating. The plates were centrifuged at 10 g for 5 minutes before incubation for 1 hour at 37° C. in humidified 5% CO2. Nonadherent cells were removed by centrifugation (top side down) at 10 g for 5 minutes. Attached cells were stained with 0.5% crystal violet, and the wells were washed with PBS. The relative number of cells in each well was evaluated after solubilization in 40 μl of 2% Triton X-100 by measuring absorbance at 595 nm in a microplate reader. All determinations were carried out in triplicate.
# Sequence of Integrin alpha-5/beta-1 (P05556 21-798 limits assumed): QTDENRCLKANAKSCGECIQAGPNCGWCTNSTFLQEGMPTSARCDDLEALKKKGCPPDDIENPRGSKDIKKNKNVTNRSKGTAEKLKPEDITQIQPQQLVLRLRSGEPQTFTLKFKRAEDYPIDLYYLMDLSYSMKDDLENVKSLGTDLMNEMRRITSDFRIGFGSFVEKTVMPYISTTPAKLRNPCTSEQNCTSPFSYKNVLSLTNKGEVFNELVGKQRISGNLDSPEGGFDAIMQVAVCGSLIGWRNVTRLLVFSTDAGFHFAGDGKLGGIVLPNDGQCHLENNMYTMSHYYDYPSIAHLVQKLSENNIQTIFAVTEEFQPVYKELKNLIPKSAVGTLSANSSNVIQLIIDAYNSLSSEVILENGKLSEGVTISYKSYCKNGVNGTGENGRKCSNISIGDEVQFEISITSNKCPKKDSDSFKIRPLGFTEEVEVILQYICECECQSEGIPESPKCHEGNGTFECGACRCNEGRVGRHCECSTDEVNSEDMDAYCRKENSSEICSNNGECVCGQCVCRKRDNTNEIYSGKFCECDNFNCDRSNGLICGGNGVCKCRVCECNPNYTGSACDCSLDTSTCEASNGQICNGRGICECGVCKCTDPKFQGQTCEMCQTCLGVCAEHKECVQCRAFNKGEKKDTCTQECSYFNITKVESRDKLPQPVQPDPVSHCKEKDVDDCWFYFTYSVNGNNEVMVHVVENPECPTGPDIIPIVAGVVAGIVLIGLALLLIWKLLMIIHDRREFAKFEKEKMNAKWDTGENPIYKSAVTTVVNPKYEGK
# Sequence of Integrin alpha-5/beta-1 (P08648 42-894 limits assumed): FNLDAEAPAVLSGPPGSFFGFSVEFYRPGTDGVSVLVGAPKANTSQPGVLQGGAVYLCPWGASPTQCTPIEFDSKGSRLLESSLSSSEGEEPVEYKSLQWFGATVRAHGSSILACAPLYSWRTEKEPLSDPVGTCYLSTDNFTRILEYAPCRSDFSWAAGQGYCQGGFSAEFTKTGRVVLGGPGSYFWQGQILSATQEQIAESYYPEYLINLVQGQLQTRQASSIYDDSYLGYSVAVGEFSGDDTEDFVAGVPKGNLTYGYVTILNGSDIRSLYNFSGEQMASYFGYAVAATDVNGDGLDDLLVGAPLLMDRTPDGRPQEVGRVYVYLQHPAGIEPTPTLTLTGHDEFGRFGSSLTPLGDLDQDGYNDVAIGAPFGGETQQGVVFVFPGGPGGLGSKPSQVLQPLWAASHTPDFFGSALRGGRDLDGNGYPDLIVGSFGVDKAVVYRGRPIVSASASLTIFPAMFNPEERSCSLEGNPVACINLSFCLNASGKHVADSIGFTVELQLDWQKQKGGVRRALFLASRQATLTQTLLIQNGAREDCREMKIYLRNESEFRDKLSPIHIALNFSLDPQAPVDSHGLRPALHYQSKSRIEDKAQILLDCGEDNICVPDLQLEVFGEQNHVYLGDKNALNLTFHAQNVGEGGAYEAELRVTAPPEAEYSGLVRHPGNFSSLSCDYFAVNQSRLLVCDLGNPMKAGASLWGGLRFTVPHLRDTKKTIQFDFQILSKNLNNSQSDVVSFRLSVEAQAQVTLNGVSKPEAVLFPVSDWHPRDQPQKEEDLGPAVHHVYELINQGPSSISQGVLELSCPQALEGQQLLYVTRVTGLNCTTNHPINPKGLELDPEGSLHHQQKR
# Sequence of Integrin alpha-5/beta-1 (P08648 895-1049 limits assumed): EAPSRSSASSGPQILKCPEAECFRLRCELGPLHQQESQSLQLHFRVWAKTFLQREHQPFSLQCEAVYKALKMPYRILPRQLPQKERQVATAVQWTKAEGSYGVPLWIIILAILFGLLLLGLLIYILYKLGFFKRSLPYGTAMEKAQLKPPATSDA
row,IC50 [nM],Structure (SMILES)
1,< 100,O=C(CNC(=O)c1cccc(NC2=NCC(O)CN2)c1)NC[C@H](NC(=O)c1c(Cl)cc(-c2ccccc2)cc1Cl)C(=O)O (stereo partly drawn)
2,< 100,O=C(CNC(=O)c1cccc(NC2=NCCCO2)c1)NC[C@H](NC(=O)c1c(Cl)cc(-c2ccccc2)cc1Cl)C(=O)O
3,< 100,N#Cc1cc(NC(=N)N)cc(C(=O)NCC(=O)NC[C@H](NC(=O)c2c(Cl)cc(-c3ccccc3)cc2Cl)C(=O)O)c1
